Experimental data taken from patent US10899754B2, “Modulators of indoleamine 2,3-dioxygenase” (GLAXOSMITHKLINE INTELLECTUAL PROPERTY DEVELOPMENT LIMITED, priority 2016, dated 2021).

Key:
Assay type in all cases: cell-based
[1] = test system: human epithelial HeLa cells; assay: HeLa cytotoxicity assay (CellTiter-Glo); details: pCC50
Method in brief: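 Read-out is CellTiter-Glo luminescence after 2 days at 37 °C, on IFN-γ-stimulated (10 nM) HeLa cells seeded at 5,000/well with compounds in 11-point 3-fold dose series. pCC50 from four-parameter curve fit; wells without cells set 100% cytotoxicity, stimulated cells with DMSO set 0%.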

[2] = test system: human peripheral blood mononuclear cells (PBMC); assay: PBMC cytotoxicity assay (CellTiter-Glo); details: 2 days, pCC50
Method in brief: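 % cytotoxicity was taken from CellTiter-Glo luminescence, using wells without cells and stimulated DMSO wells as references, and fitted by four-parameter curve to give XC50. Cells were human PBMC at 50,000 per well, activated with 100 ng/ml IFN-γ plus 50 ng/ml LPS. Incubation with 11-point, 3-fold dilution series ran for 2 days at 37 °C.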

[3] = target: T1, indoleamine 2, 3-dioxygenase (IDO1) (Homo sapiens, UniProt P14902); assay: IDO1 HeLa RapidFire MS assay (kynurenine detection by mass spectrometry); set-up: to induce the expression of indoleamine 2, 3-dioxygenase (IDO1); details: HeLa cells, pIC50, read-out: IDO1_HELA_PXC50 (converted)
T1 sequence (P14902 whole entry): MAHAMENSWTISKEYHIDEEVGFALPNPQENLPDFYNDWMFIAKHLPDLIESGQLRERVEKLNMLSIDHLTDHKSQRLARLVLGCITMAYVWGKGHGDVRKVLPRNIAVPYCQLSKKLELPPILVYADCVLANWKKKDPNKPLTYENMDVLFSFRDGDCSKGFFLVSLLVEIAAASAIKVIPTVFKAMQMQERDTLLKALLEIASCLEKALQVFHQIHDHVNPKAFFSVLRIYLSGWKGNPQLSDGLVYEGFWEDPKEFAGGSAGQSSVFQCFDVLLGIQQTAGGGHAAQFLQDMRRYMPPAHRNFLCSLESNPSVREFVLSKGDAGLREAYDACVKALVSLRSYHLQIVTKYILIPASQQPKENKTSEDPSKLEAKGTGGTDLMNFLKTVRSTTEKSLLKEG
Method in brief: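 Compound potency reported as pIC50 from kynurenine/internal-standard ratio (RapidFire MS) in supernatant of IFN-γ-induced (10 nM) HeLa cells, 5,000 per well, after 2 days' treatment with 11-point dilutions. Cytotoxicity in the same format by luminescent ATP detection, reported as pCC50.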

[4] = target: T1, indoleamine 2, 3-dioxygenase (IDO1); assay: IDO1 PBMC RapidFire MS assay (kynurenine detection by mass spectrometry); set-up: to induce the expression of indoleamine 2, 3-dioxygenase (IDO1); host or cells: human PBMC stimulated with IFN-gamma and LPS; details: human PBMC stimulated with IFN-γ and LPS, 2 days, pIC50, read-out: PBMC PXC50 (converted)
Method in brief: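 Kynurenine output, read by RapidFire mass spectrometry as ratio to an internal standard, was measured after 2-day compound exposure (11-point, 3-fold dilutions) of human PBMCs induced with 100 ng/ml IFN-γ and 50 ng/ml LPS. Cell viability tracked alongside via ATP luminescence; XC50 from curve fitting.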

SMILES | IC50 [3] | IC50 [4] | HELA_IDO1_TOX_PXC50 [1] | PBMC TOX PXC50 [2]
Cc1nc(C)c(Nc2cc(C(C)CC(=O)O)ccc2N(CC(C)C)CC(C)C)s1 (centres unmarked) [example 139, 3-{4-[bis(2-methylpropyl)amino]-3-[(2,4-dimethyl-1,3-thiazol-5-yl)amino]phenyl}butanoic acid] | > 10000 nM | > 10000 nM | <5 | <5
CC(C)CN(c1ccc([C@H](C)CC(=O)O)cc1Nc1nc(C2CC2)ns1)C1CCOCC1 [Example 28, (R)-3-(3-((3-cyclopropyl-1,2,4-thiadiazol-5-yl)amino)-4-(isobutyl(tetrahydro-2H-pyran-4-yl)amino)phenyl)butanoic Acid] | 6.31 nM | 5.01 nM | <5 | <5
CC(C)CN(c1ccc(C(C)(C)CC(=O)O)cc1Nc1ccc(Cl)cn1)C1CCOCC1 [Example 4, 3-(3-((5-chloropyridin-2-yl)amino)-4-(isobutyl(tetrahydro-2H-pyran-4-yl)amino)phenyl)-3-methylbutanoic Acid] | 6.31 nM | 3.98 nM | <5 | <5
CC(C)CN(c1ccc([C@H](C)CC(=O)O)cc1Nc1cnc(C#N)nc1)C1CCOCC1 [Example 17, (R)-3-(3-((2-cyanopyrimidin-5-yl)amino)-4-(isobutyl(tetrahydro-2H-pyran-4-yl)amino)phenyl)butanoic Acid] | 6.31 nM | 2 nM | <5 | <5
CC(C)CN(c1ccc([C@H](C)CC(=O)O)cc1Nc1cnc(Cl)cn1)[C@H]1CC[C@H](O)CC1 [Example 45, (R)-3-(3-((5-chloropyrazin-2-yl)amino)-4-(((1r,4R)-4-hydroxycyclohexyl) (isobutyl)amino)phenyl)butanoic Acid] | 3.98 nM | 1.26 nM | <5 | <5
CC(C)CN(c1ccc(C(C)CC(=O)O)cc1NC1=NC(=O)[C@@H](c2ccccc2)N1)C1CCCCC1 (stereo partly drawn) [example 155, 3-{4-[cyclohexyl(2-methylpropyl)amino]-3-{[(5R)-4-oxo-5-phenyl-4,5-dihydro-1H-imidazol-2-yl]amino}phenyl}butanoic acid] | 1000 nM | 1580 nM | <5 | <5
CC(C)CN(c1ccc(-c2ccccc2C(=O)O)cc1Nc1nc(C(N)=O)ns1)C1CCCCC1 [Example 91, 3′-((3-carbamoyl-1,2,4-thiadiazol-5-yl)amino)-4′-(cyclohexyl(isobutyl)amino)-[1,1′-biphenyl]-2-carboxylic acid] | 20 nM | 10 nM | <5 | <5
CC(C)CN(c1ccc([C@H](C)CC(=O)O)cc1Nc1cnc(C(F)(F)F)nc1)C1CCOCC1 [Example 9, (R)-3-(4-(isobutyl(tetrahydro-2H-pyran-4-yl)amino)-3-((2-(trifluoromethyl)pyrimidin-5-yl)amino)phenyl)butanoic Acid] | 2.51 nM | 1 nM | <5 | <5
CC(C)CN(c1ccc(C(C)CC(=O)O)cc1NCc1ccccn1)C1CCCCC1 (centres unmarked) [example 161, 3-{4-[cyclohexyl(2-methylpropyl)amino]-3-{[(pyridin-2-yl)methyl]amino}phenyl} butanoic acid] | 2510 nM | 2000 nM | <5 | <5
CC(C)CN(c1ccc(C(C)(C)CC(=O)O)cc1Nc1nc(Cl)ns1)C1CCOCC1 [Example 5, 3-(3-((3-chloro-1,2,4-thiadiazol-5-yl)amino)-4-(isobutyl(tetrahydro-2H-pyran-4-yl)amino)phenyl)-3-methylbutanoic Acid] | 25.1 nM | 5.01 nM | <5 | <5
CC(C)CN(c1ccc([C@H](C)CC(=O)O)cc1Nc1ccc(Cl)nc1)C1CCCCC1 [Example 74, (R)-3-(3-((6-chloropyridin-3-yl)amino)-4-(cyclohexyl(isobutyl)amino)phenyl)butanoic Acid] | 3.98 nM | 0.794 nM | <5 | 6.5
CC(C)CN(CC(C)C)c1ccc(C(C)CC(=O)O)cc1NC1CCCCC1 (centres unmarked) [example 157, 3-{4-[bis(2-methylpropyl)amino]-3-(cyclohexylamino)phe-nyl}butanoic acid] | 1000 nM | 794 nM | <5 | <5
CC(C)CN(c1ccc(C(C)CC(=O)O)cc1NCc1ccc(F)c(F)c1)C1CCCCC1 (centres unmarked) [example 162, 3-{4-[cyclohexyl(2-methylpropyl)amino]-3-{[(3,4-difluorophenyl)methyl]amino}phenyl}butanoic acid] | 1000 nM | 398 nM | <5 | <5
CC(C)CN(c1ccc(C(C)OCC(=O)O)cc1Nc1ccc(C#N)cn1)C1CCCCC1 (centres unmarked) [Example 113, 2-(1-(3-((5-cyanopyridin-2-yl)amino)-4-(cyclohexyl(isobutyl)amino)phenyl)ethoxy)acetic Acid] | 10 nM | 5.01 nM | <5 | <5
CC(C)CN(c1ccc([C@H](C)CC(=O)O)cc1Nc1ccc(Cl)cn1)C1CCCCC1 [Example 75, (R)-3-(3-((5-chloropyridin-2-yl)amino)-4-(cyclohexyl(isobutyl)amino)phenyl)butanoic Acid] | 3.16 nM | 1.58 nM | <5 | <5

Continued, in another order:

IC50 [3] | IC50 [4] | SMILES | HELA_IDO1_TOX_PXC50 [1] | PBMC TOX PXC50 [2]
12.6 nM | 12.6 nM | CC(C)CN(CC(C)C)c1ccc(C2CC2C(=O)O)cc1Nc1nc(C(F)(F)F)ns1 (centres unmarked) [example 174, 2-{4-[bis(2-methylpropyl)amino]-3-{[3-(trifluoromethyl)-1,2,4-thiadiazol-5-yl]amino}phenyl}cyclo-propane-1-carboxylic acid] | <5 | <5
20 nM | 31.6 nM | Cc1nnc(Nc2cc([C@H](C)CC(=O)O)ccc2N(CC(C)C)C2CCOCC2)s1 [example 215, (3R)-3-{3-[(5-methyl-1,3,4-thiadiazol-2-yl)amino]-4-[(2-methylpropyl)(oxan-4-yl)amino]phenyl}butanoic acid] | <5 | <5
3.98 nM | 2.51 nM | CC(C)CN(c1ccc([C@@H](C)CC(=O)O)cc1Nc1ccnc(Cl)n1)C1CCCCC1 [example 300] | <5 | <5
200 nM | 63.1 nM | CC(C)CN(c1ccc([C@H](C)CC(=O)O)cc1Nc1nnc(C(C)C)[nH]1)C1CCOCC1 [example 212, (3R)-3-{4-[(2-methylpropyl)(oxan-4-yl)amino]-3-{[5-(propan-2-yl)-4H-1,2,4-triazol-3-yl]amino}phenyl}butanoic acid] | <5 | <5
15.8 nM | 6.31 nM | CC(C)CN(c1ccc(-c2ccccc2C(=O)O)cc1Nc1nc(C(F)(F)F)cs1)C1CCCCC1 [example 299, 4′-[cyclohexyl(2-methylpropyl)amino]-3′-{[4-(trifluoromethyl)-1,3-thiazol-2-yl]amino}-[1,1′-biphenyl]-2-carboxylic acid] | <5 | <5
79.4 nM | 39.8 nM | CC(C)CN(c1ccc([C@H](C)CC(=O)O)cc1Nc1cccc(C(F)(F)F)n1)C1CCCCC1 [example 172, (3R)-3-{4-[cyclohexyl(2-methylpropyl)amino]-3-{[6-(trifluoromethyl)pyridin-2-yl]amino}phenyl}butanoic acid] | <5 | <5
100 nM | 126 nM | CC(C)CN(c1ccc(-c2ccccc2C(=O)O)cc1Nc1nc2ccccc2o1)C1CCOCC1 [example 291, 3′-[(1,3-benzoxazol-2-yl)amino]-4′-[(2-methylpropyl)(oxan-4-yl)amino]-[1,1′-biphenyl]-2-carboxylic acid] | <5 | <5
316 nM | 100 nM | CC(C)CN(CC(C)C)c1ccc(-c2ccccc2C(=O)O)cc1Nc1nc(C2CC2)ns1 [example 288, 4′-[bis(2-methylpropyl)amino]-3′-[(3-cyclopropyl-1,2,4-thiadiazol-5-yl)amino]-[1,1′-biphenyl]-2-carboxylic acid] | <5 | <5
